Experimental findings from PubChem BioAssay (NCI) are described below.

Several values for one entry are separate records, joined by “and”; a condition that tells them apart may be missing. Equal values may be shown once.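 The compound was tested at five concentrations on cells cultured in 96-well plates, with a 48-hour exposure period. Abbreviation: GI50, concentration required for 50% inhibition of growth. TGI marks complete inhibition of growth.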

Some test systems named below: PC-3 prostate; SF-268 CNS; TK-10 renal; HCT-116 colon; SF-295 CNS; MDA-MB-231 breast; HOP-92 NSCLC; OVCAR-3 ovarian; HOP-62 NSCLC; IGROV1 ovarian.
Holding throughout (experiment): NCI-60 cell line screen, 48 h

As for `CCN(CC)CCCC(C)Nc1ccnc2cc(Oc3ccccc3)ccc12` (stereo not given), the GI50 in the assay on PC-3 prostate is 8.89 µM and 19.3 µM; in the assay with SF-268 CNS, 6.48 µM and 8.36 µM; with TK-10 renal, 2.58 µM and 3.23 µM; in the assay on HCT-116 colon, 2.59 µM and 3.03 µM; with SF-295 CNS it was 2.69 µM and 4.09 µM; with MDA-MB-231 breast, 2.05 µM and 3.47 µM. Further, the GI50 in the assay with HOP-92 NSCLC is 5.62 µM and 3.78 µM; in the assay on OVCAR-3 ovarian it was 13.7 µM and 22 µM; in the assay with HOP-62 NSCLC, 7.45 µM and 11.5 µM; with IGROV1 ovarian, 3.55 µM and 14.1 µM. Moreover, the TGI is 35.5 µM and > 100 µM in the assay on PC-3 prostate; 19.9 µM and 92.4 µM with SF-268 CNS; 8.34 µM and 10.3 µM in the assay on TK-10 renal; 13.1 µM and 21.9 µM in the assay with HCT-116 colon; 17.4 µM and 19 µM in the assay with SF-295 CNS; 8.41 µM and 21.9 µM in the assay on MDA-MB-231 breast. Moreover, the TGI with HOP-92 NSCLC is 20.5 µM and 27 µM; with OVCAR-3 ovarian, 34.2 µM and > 100 µM; in the assay with HOP-62 NSCLC it was 21.7 µM and 37.4 µM; in the assay on IGROV1 ovarian, 16.9 µM and > 100 µM.

Consider `Fc1ccc2c(c1)C1=NN(c3ccccc3)C(F)C1CO2` (stereo not given), for which the GI50 in the assay with PC-3 prostate is 11.1 µM; in the assay on SF-268 CNS, 7.52 µM; in the assay on TK-10 renal, 12.5 µM; in the assay on HCT-116 colon, 10.7 µM; in the assay on SF-295 CNS it was 6.45 µM; in the assay with MDA-MB-231 breast, 5.36 µM. In addition, the GI50 in the assay with HOP-92 NSCLC is 9.55 µM; in the assay on OVCAR-3 ovarian, 6.14 µM; in the assay on HOP-62 NSCLC, 19 µM; with IGROV1 ovarian, 15.2 µM. In addition, the TGI with PC-3 prostate was above 50 µM; with SF-268 CNS it was 23.2 µM; in the assay on TK-10 renal it was 35.6 µM; in the assay with HCT-116 colon it was above 50 µM; in the assay with SF-295 CNS, 17.1 µM; in the assay with MDA-MB-231 breast, 13.6 µM. Moreover, the TGI in the assay with HOP-92 NSCLC is 23.7 µM; in the assay with OVCAR-3 ovarian, 19.1 µM; in the assay with HOP-62 NSCLC, above 50 µM; in the assay on IGROV1 ovarian, above 50 µM.

With `C[C@H]1[C@H](C)CC[C@]2(CO)CC[C@]3(C)C(=CC[C@@H]4[C@@]5(C)CCCNC(C)(C)[C@@H]5CC[C@]43C)[C@H]12`, the GI50 in the assay on PC-3 prostate was 1.55 µM; in the assay on SF-268 CNS it was 1.79 µM; with TK-10 renal, 1.84 µM; in the assay with HCT-116 colon, 1.49 µM; with SF-295 CNS it was 1.64 µM; in the assay with MDA-MB-231 breast it was 1.88 µM. The GI50 in the assay on HOP-92 NSCLC is 1.52 µM; in the assay on OVCAR-3 ovarian, 1.83 µM; with HOP-62 NSCLC, 1.81 µM; in the assay on IGROV1 ovarian, 1.85 µM. Moreover, the TGI worked out at 2.96 µM with PC-3 prostate; 3.5 µM in the assay on SF-268 CNS; 3.32 µM in the assay on TK-10 renal; 2.81 µM in the assay on HCT-116 colon; 3.06 µM in the assay with SF-295 CNS; 3.48 µM in the assay with MDA-MB-231 breast. The TGI in the assay on HOP-92 NSCLC was 3.19 µM; with OVCAR-3 ovarian, 3.42 µM; in the assay on HOP-62 NSCLC it was 3.43 µM; in the assay with IGROV1 ovarian it was 3.72 µM.

On to `COc1ccc(/C(COc2ccc3c(=O)cc(-c4ccccc4)oc3c2)=N\O)cc1`, for which the GI50 in the assay with PC-3 prostate was 12.7 µM; in the assay on SF-268 CNS, 11.3 µM; in the assay with TK-10 renal, 10.7 µM; in the assay with HCT-116 colon, 21.2 µM; with SF-295 CNS, 12.5 µM; in the assay with MDA-MB-231 breast, 5.82 µM. The GI50 in the assay on HOP-92 NSCLC is above 27.7 µM; with OVCAR-3 ovarian it was 10.3 µM; in the assay with HOP-62 NSCLC, 26.1 µM; in the assay with IGROV1 ovarian, 16.6 µM. Further, the TGI was above 36.1 µM in the assay with PC-3 prostate; above 36.8 µM with SF-268 CNS; 28.1 µM in the assay on TK-10 renal; above 50 µM in the assay on HCT-116 colon; 42.8 µM with SF-295 CNS; 22.5 µM in the assay with MDA-MB-231 breast. The TGI in the assay with HOP-92 NSCLC was above 50 µM; in the assay on OVCAR-3 ovarian it was 38.7 µM; in the assay with HOP-62 NSCLC, above 50 µM; in the assay on IGROV1 ovarian, above 47.6 µM.

`COc1cc([C@@H]2OC[C@@H]3C(c4cc(OC)c5c(c4)OCO5)OC[C@@H]32)cc(OC)c1OC` (stereo not given in full): the TGI with PC-3 prostate, in the assay on SF-268 CNS, in the assay with TK-10 renal, with HCT-116 colon, in the assay with SF-295 CNS and with MDA-MB-231 breast was above 100 µM each time. The TGI in the assay with HOP-92 NSCLC, with OVCAR-3 ovarian, in the assay on HOP-62 NSCLC and in the assay with IGROV1 ovarian was above 100 µM in each case.

Consider `COc1ccc(C(=O)OC2C(OC3C(O)COC(O[C@H]4C[C@H]5[C@@H]6CC=C7C[C@@H](O)CC[C@]7(C)[C@H]6CC[C@]5(C)[C@H]4[C@H](C)C(=O)CCC(C)C)C3OC(N)=O)OCC(O)C2O)cc1` (stereo not given in full), for which the GI50 in the assay with PC-3 prostate was 0.0073 µM; in the assay on SF-268 CNS, 0.0427 µM; in the assay with TK-10 renal it was 1.04 µM; in the assay with HCT-116 colon, 0.0198 µM; with SF-295 CNS it was below 0.003 µM; in the assay on MDA-MB-231 breast, 0.355 µM. Also, the GI50 was 0.0686 µM in the assay on HOP-92 NSCLC, 0.755 µM with OVCAR-3 ovarian, 0.0247 µM in the assay on HOP-62 NSCLC and 0.0282 µM in the assay with IGROV1 ovarian. The TGI with PC-3 prostate was determined as 0.473 µM; in the assay on SF-268 CNS it was 1.49 µM; in the assay with TK-10 renal, 5.23 µM; in the assay with HCT-116 colon it was 3.56 µM; in the assay with SF-295 CNS, 0.00922 µM; in the assay on MDA-MB-231 breast, 4.58 µM. Further, the TGI in the assay with HOP-92 NSCLC was 1.2 µM; in the assay with OVCAR-3 ovarian, 5.75 µM; with HOP-62 NSCLC it was 1.7 µM; in the assay with IGROV1 ovarian, 3.69 µM.

On to `CC1CCC(NC(=O)N(CCCl)N=O)CC1` (stereo not given), for which the TGI in the assay with PC-3 prostate was 96.6 µM; in the assay with SF-268 CNS, 39.8 µM and 89.5 µM; with TK-10 renal, 125 µM; with HCT-116 colon it was 90.4 µM and 85.6 µM; with SF-295 CNS it was 36.3 µM; with MDA-MB-231 breast, 91.2 µM. The TGI in the assay with HOP-92 NSCLC was 64.2 µM and 68.8 µM; in the assay with OVCAR-3 ovarian, 70.4 µM; in the assay on HOP-62 NSCLC, 93 µM; with IGROV1 ovarian, 80.7 µM and 89 µM. Also, the GI50 was 14.9 µM in the assay on SF-268 CNS; 45.2 µM in the assay on TK-10 renal; 30.2 µM with HCT-116 colon; 53.7 µM in the assay with SF-295 CNS; 71.2 µM in the assay with HOP-62 NSCLC; 22.6 µM in the assay with IGROV1 ovarian.

On to `COc1ccc(-c2cc(=O)[nH]c3c(OC)c4ccccc4c(OC)c23)cc1`, for which the GI50 in the assay with PC-3 prostate is 0.382 µM; with SF-268 CNS, 0.552 µM; with TK-10 renal it was above 42.4 µM; in the assay with HCT-116 colon, 0.38 µM; in the assay on SF-295 CNS, 0.272 µM; with MDA-MB-231 breast it was 1.44 µM. The GI50 is 0.409 µM in the assay on HOP-92 NSCLC, 0.165 µM in the assay on OVCAR-3 ovarian, 1.47 µM in the assay with HOP-62 NSCLC and 0.47 µM in the assay on IGROV1 ovarian. Besides, the TGI in the assay with PC-3 prostate, with SF-268 CNS, in the assay with TK-10 renal, in the assay on HCT-116 colon, in the assay on MDA-MB-231 breast and in the assay on HOP-92 NSCLC was above 100 µM in each case. Moreover, the results for the TGI in the assay on OVCAR-3 ovarian, in the assay with HOP-62 NSCLC and in the assay with IGROV1 ovarian were 0.713 µM, above 100 µM and above 91.5 µM, respectively.
